Literature values, collected in patent US20170216217A1, “SPHERICAL MICROCAPSULES WITH ENHANCED ORAL BIOAVAILABILITY” (I2O Pharma Ltd., priority 2016, published 2017).

Oral bioavailability: 27%
SMILES: CN1CCN(C2=Nc3cc(Cl)ccc3Nc3ccccc32)CC1 [Clozapine]
